{
  "source": "patent US12104170B2",
  "about": "“Methods for deriving dopaminergic neurons from pluripotent stem cells” (MINERVA BIOTECHNOLOGIES CORPORATION, priority 2020, dated 2024)",
  "molecules": {"B1": {"name": "WNT3A: beta-catenin agonist added to pluripotent stem cell media at 100 ng/mL for 48 hours before differentiation (protein, UniProt P56704 19-352, looked up)", "Protein Wnt-3a": "SYPIWWSLAVGPQYSSLGSQPILCASIPGLVPKQLRFCRNYVEIMPSVAEGIKIGIQECQHQFRGRRWNCTTVHDSLAIFGPVLDKATRESAFVHAIASAGVAFAVTRSCAEGTAAICGCSSRHQGSPGKGWKWGGCSEDIEFGGMVSREFADARENRPDARSAMNRHNNEAGRQAIASHMHLKCKCHGLSGSCEVKTCWWSQPDFRAIGDFLKDKYDSASEMVVEKHRESRGWVETLRPRYTYFKVPTERDLVYYEASPNFCEPNPETGSFGTRDRTCNVSSHGIDGCDLLCCGRGHNARAERRREKCRCVFHWCCYVSCQECTRVYDVHTCK"}},
  "key": {"[1]": {"system": "human iPS cells differentiating to dopaminergic neurons", "assay": "Addition of forms of vitamin B6 or vitamin A around Day 20 of differentiation (morphology, markers, neural projections)", "type": "cell-based", "settings": "for empirically determined optimal concentration: added around Day 20 and onward, final concentration; for effect of adding vitamin B6 form on dopaminergic neurons: added starting around Day 21, retinol, retinyl acetate and vitamin C in all conditions (FIG. 16)", "experimental": "In this next set of experiments, we followed Protocol A, except that around Day 20, the neural base media will be exchanged for one that contains approximately 1.2 uM retinol and 0.17 uM retinyl acetate and various other forms of vitamin B6 were then added (FIG. 1, Example 2). Resultant cells were analyzed for cell morphology, yield of TH and DAT positive cells relative to Tuj1 positivity and the number and length of neural projections as an indicator of engraftment potential.\nWe assessed the effects of various forms of vitamin B6 on differentiation of dopaminergic neurons from human iPS cells. […] The differentiation protocol called Protocol A (FIG. 1) was followed until Day 20. From Day 21 onward, to the basal media was added vitamin A in the form of retinol at 1.2 uM and retinyl acetate at 0.17 uM and vitamin C as ascorbic acid-2-phosphate at a final concentration of about 200 nM. It is important to note that the neural basal media that was used in all conditions contained 10 uM pyridoxal, so pyridoxal at this low concentration was present from the onset of differentiation.\nIn addition to the vitamins A and C which were constant throughout all conditions, various forms of vitamin B6 were added: 16 uM pyridoxine (FIG. 12A-12K), or 11 uM pyridoxal (FIG. 13A-13K), or 20 uM pyridoxal-5′-phosphate also known as PLP (FIG. 14A-14K), or all of the vitamin Bs. To assess the quality of the resultant dopaminergic neurons we examined: a) the percentage of the GIRK2 positive cells that were also positive for TH, Tyrosine hydroxylase which is an enzyme that mediates the conversion of L-tyrosine to L-3,4-dihydroxyphenylalanine, which is the rate limiting step in dopamine synthesis; this percentage should be high as an indicator of yield of the desired cell type -dopaminergic neurons; b) The percentage of TUJ positive neurons that were also TH positive; TUJ is a pleiotropic marker of neurons; only those that are TH positive are truly dopaminergic neurons; c) the percentage of the TUJ positive cells that are also positive for DAT, the dopamine transporter protein; d) the shape of the cell body should have the characteristic elongated triangular shape of neurons; and e) the length and number of neural projections associated with being TH and DAT positive. For engraftment, the length and number of neural projections is considered to be the most important factor."}, "[2]": {"system": "human iPS cells differentiated to dopaminergic neurons", "assay": "Immunofluorescent staining for GIRK2, TH, DAT, Tuj1 and morphology (yield and purity of dopaminergic neurons)", "type": "cell-based", "settings": "iPSCs grown in E8 plus WNT3A for 48 hours before initiating differentiation", "method": "On Day 24, immunofluorescent staining was performed to detect the presence of molecular markers of dopaminergic neuron progenitors generated using Protocol A (FIG. 2A-FIG. 2L) or Protocol C.2 (FIG. 3A-FIG. 3L). GIRK2 (G-protein-regulated inward-rectifier potassium channel 2) is expressed in dopaminergic neurons while Tuj1 (neuron-specific class Ill B-tubulin) is a pan-neural marker. TH (tyrosine hydroxylase) is considered a gold standard in the identification of dopaminergic neurons because it is an enzyme that catalyzes the conversion of L-tyrosine to L-3,4-dihydroxyphenylalanine, which is the rate limiting step in dopamine synthesis. DAT (dopamine active transporter) is equally important as it is the transmembrane protein that pumps dopamine from the synapse back into the cytosol. Both differentiation protocols produced cells that were positive for all appropriate molecular markers. […]\nIn addition to the vitamins A and C which were constant throughout all conditions, various forms of vitamin B6 were added: 16 uM pyridoxine (FIG. 12A-12K), or 11 uM pyridoxal (FIG. 13A-13K), or 20 uM pyridoxal-5′-phosphate also known as PLP (FIG. 14A-14K), or all of the vitamin Bs. […] FIG. 17 is a graph of the amount of dopamine and its metabolites, measured by HPLC, present in the conditioned media from only 200,000 cells taken at Day 30, Day 40, Day 50 or Day 60. […]"}},
  "data": [
    {"molecule": "Cc1ncc(COP(=O)(O)O)c(C=O)c1O", "note": "[pyridoxal-5′-phosphate]", "values": [
      {"measurement": "empirically determined optimal concentration", "setting": "[1]", "value": "10 to 40", "unit": "µM"},
      {"measurement": "effect of adding vitamin B6 form on dopaminergic neurons", "setting": "[1]", "value": "greatly increase dopamine yield and engraftment potential"}
    ]},
    {"molecule": "Cc1ncc(CO)c(C=O)c1O", "note": "[pyridoxal]", "values": [
      {"measurement": "empirically determined optimal concentration", "setting": "[1]", "value": "5 to 20", "unit": "µM"},
      {"measurement": "effect of adding vitamin B6 form on dopaminergic neurons", "setting": "[1]", "value": "greatly increase dopamine yield and engraftment potential"}
    ]},
    {"molecule": "Cc1ncc(CO)c(CO)c1O", "note": "[pyridoxine]", "values": [
      {"measurement": "empirically determined optimal concentration", "setting": "[1]", "value": "10 to 20", "unit": "µM"}
    ]},
    {"molecule": "B1", "values": [
      {"measurement": "survival of differentiating cells", "setting": "[2]", "value": "increased survival at Day 60"}
    ]}
  ]
}
